# Test results: PMC11054303, “Design and Synthesis of Novel N-Benzylidene Derivatives of 3-Amino-4-imino-3,5-dihydro-4H-chromeno[2,3-d]pyrimidine under Microwave, In Silico ADME Predictions, In Vitro Antitumoral Activities and In Vivo Toxicity” (Pharmaceuticals, 2024)
# Columns and labels:
# MDA MB468 = assay: Antiproliferative assay, MDA MB468; type: cell-based, human; settings: for IC50: Homo sapiens, MDA-MB-468, 48 h incubation, average of three assays, standard error ± 0.5 μM; for Selectivity Index (SI) MDA MB468: SI = IC50 fibroblasts/IC50 on MDA MB468
# Procedure: (§1) The potential antiproliferative activity of these novel 3-(N-phenylmethyliden)amino-4-imino-3,5-dihydro-4H-chromeno[2,3-d]pyrimidine 10(a-i) and 10-(N-phenylmethyliden)amino-11-imino-11H-naphto[1′,2′:5,6]pyrano[2,3-d]pyrimidine 10(j-l) was evaluated in a panel of eight tumoral cell lines and in diploid skin fibroblasts used as normal cell lines for control. For these antitumor assays, chosen cell lines represent diverse types of human cancer, which are, respectively, human hepatocellular carcinoma (Huh7 D12), human colon adenocarcinoma (Caco2), human breast adenocarcinoma (MDA-MB231), MDA-MB468 for human breast carcinoma which correspond to the Triple Negative Breast Cancer (TNBC), human colon carcinoma (HCT116), PC3 as cell line initiated from bone metastasis of grade IV prostatic adenocarcinoma from a person, MCF7 as breast cancer line isolated from a person and PANC1, as human pancreatic cancer cell line. The potential antiproliferative activity was preliminarily evaluated in vitro at a 25 μM single dose.
# (§2) The IC50 was calculated from the full dose-response curve and used as a parameter for the antiproliferative activity of the new compounds.
# (§3) Skin diploid fibroblastic cells were provided by BIOPREDIC International Company (Rennes, France). Huh-7D12 (Ref ECACC: 01042712), Caco2 (Ref ECACC: 86010202), MDA-MB-231 (Ref ECACC: 92020424), MDA-MB-468, HCT-116 (Ref ECACC: 91091005), PC3 (Ref ECACC: 90112714), and MCF7 cell lines were obtained from the ECACC collection. PANC1 cell lines, a generous gift of LBAI Inserm 1227 (Brest, France). Cells were grown according to ECACC recommendations in DMEM for Huh-D12, MDA-MB-231, MDA-MB-468 and fibroblast, in EMEM for Caco2, in McCoy’s for HCT-116 and RPMI for PC3 at 37 °C and 5% CO2. All culture media with 10% of FBS, 1% of penicillin-streptomycin and 2 mM glutamine.
# (§4) Chemicals were solubilized in DMSO at a concentration of 10 mM (stock solution) and diluted in a culture medium to the desired final concentrations. […] The toxicity test of the chemicals on these cells was as follows: 2 × 10^3 cells for HCT-116 cells or 4 × 10^3 for the other cells were seeded in 96-multi-well plates in triplicate and left for 24 h for attachment, spreading and growing. Then, cells were exposed for 48 h to increasing concentrations of chemicals, ranging from 0.1 μM to 25 μM, in a final volume of 120 μL of culture medium. After 48 h of treatment, cells were washed in PBS and fixed in a cooled 90% ethanol/5% acetic acid solution for 20 min. The nuclei were stained with Hoechst 3342 (B2261 Merck Sigma-Aldrich) and counted. Image acquisition and analysis were performed using automated imaging analysis with a Cellomics Arrayscan VTI/HCS Reader (Thermo/Scientific, Waltham, MA, USA). The survival percentages were calculated as the percentage of cell number after chemical treatment over cell number after DMSO treatment. The IC50 was graphically determined.
# MCF7 = assay: Antiproliferative assay, MCF7; type: cell-based, human; settings: for IC50: Homo sapiens, MCF7, 48 h incubation, average of three assays, standard error ± 0.5 μM; for Selectivity Index (SI) MCF7: SI = IC50 fibroblasts/IC50 on MCF7
# Procedure: as §1, §2, §3, §4
# Huh7 D12 = assay: Antiproliferative assay, Huh7 D12; type: cell-based, human; settings: for IC50: Homo sapiens, Huh-7D12, 48 h incubation, average of three assays, standard error ± 0.5 μM; for Selectivity Index (SI) Huh7 D12: SI = IC50 fibroblasts/IC50 on Huh7 D12
# Procedure: as §1, §2, §3, §4
# HCT 116 = assay: Antiproliferative assay, HCT 116; type: cell-based, human; settings: for IC50: Homo sapiens, HCT-116, 48 h incubation, average of three assays, standard error ± 0.5 μM; for Selectivity Index (SI) HCT 116: SI = IC50 fibroblasts/IC50 on HCT 116
# Procedure: as §1, §2, §3, §4
# Fibroblasts = assay: Antiproliferative assay, diploid skin fibroblasts (normal cells); type: cell-based; settings: for IC50: Fibroblast, 48 h incubation, average of three assays, standard error ± 0.5 μM
# Procedure: as §1, §2, §3, §4
# MDA MB231 = assay: Antiproliferative assay, MDA MB231; type: cell-based, human; settings: for IC50: Homo sapiens, MDA-MB-231, 48 h incubation, average of three assays, standard error ± 0.5 μM; for Selectivity Index (SI) MDA MB231: SI = IC50 fibroblasts/IC50 on MDA MB231
# Procedure: as §1, §2, §3, §4
# PANC1 = assay: Antiproliferative assay, PANC1; type: cell-based, human; settings: for IC50: Homo sapiens, PANC-1, 48 h incubation, average of three assays, standard error ± 0.5 μM; for Selectivity Index (SI) PANC1: SI = IC50 fibroblasts/IC50 on PANC1
# Procedure: as §1, §2, §3, §4
# Caco2 = assay: Antiproliferative assay, Caco2; type: cell-based, human; settings: Homo sapiens, Caco-2; 48 h incubation; average of three assays, standard error ± 0.5 μM
# Procedure: as §1, §2, §3, §4
# PC3 = assay: Antiproliferative assay, PC3; type: cell-based, human; settings: for IC50: Homo sapiens, PC-3, 48 h incubation, average of three assays, standard error ± 0.5 μM; for Selectivity Index (SI) PC3: SI = IC50 fibroblasts/IC50 on PC3
# Procedure: as §1, §2, §3, §4
# tumor cell lines = assay: Antiproliferative assay, panel of tumoral cell lines; type: cell-based; settings: Homo sapiens, 48 h, summary over tumoral cell lines of Table 3, 48 h; read-out: IC50 on tumor cell lines (span over the panel)
# Procedure: as §1, §2, §3, §4
# [1] = Antiproliferative assay, Caco2; type: cell-based, human; settings: human, Caco-2; SI = IC50 fibroblasts/IC50 on Caco2; read-out: Selectivity Index (SI) Caco2
# Procedure: as §1, §2, §3, §4
SMILES,IC50 (MCF7) [µM],IC50 (Huh7 D12) [µM],IC50 (HCT 116) [µM],IC50 (PANC1) [µM],IC50 (Caco2) [µM],IC50 (PC3) [µM],IC50 (tumor cell lines) [µM],IC50 (MDA MB468) [µM],IC50 (Fibroblasts) [µM],IC50 (MDA MB231) [µM],Selectivity Index (SI) MDA MB468 (MDA MB468),Selectivity Index (SI) MCF7 (MCF7),Selectivity Index (SI) Huh7 D12 (Huh7 D12),Selectivity Index (SI) HCT 116 (HCT 116),"effect on fibroblasts (healthy skin cell), in words (Fibroblasts)",Selectivity Index (SI) MDA MB231 (MDA MB231),Selectivity Index (SI) PANC1 (PANC1),selectivity ratio at 48 h [1],Selectivity Index (SI) PC3 (PC3)
CCN(CC)c1ccc2c(c1)Oc1ncn(/N=C/c3ccc(N(C)C)cc3)c(=N)c1C2 [10a],> 25,> 25,> 25,> 25,> 25,> 25,,> 25,> 25,> 25,,,,,,,,,
CCN(CC)c1ccc2c(c1)Oc1ncn(/N=C/c3ccccc3O)c(=N)c1C2 [10b],> 25,> 25,> 25,> 25,> 25,> 25,,> 25,> 25,> 25,,,,,,,,,
CCN(CC)c1ccc2c(c1)Oc1ncn(/N=C/c3ccccc3)c(=N)c1C2 [10c],> 25,> 25,> 25,> 25,> 25,> 25,,> 25,> 25,> 25,,,,,,,,,

# Further lines, with some results ahead:
IC50 (MCF7) [µM],IC50 (Huh7 D12) [µM],IC50 (HCT 116) [µM],IC50 (PANC1) [µM],IC50 (Caco2) [µM],IC50 (PC3) [µM],IC50 (tumor cell lines) [µM],SMILES,IC50 (MDA MB468) [µM],IC50 (Fibroblasts) [µM],IC50 (MDA MB231) [µM],Selectivity Index (SI) MDA MB468 (MDA MB468),Selectivity Index (SI) MCF7 (MCF7),Selectivity Index (SI) Huh7 D12 (Huh7 D12),Selectivity Index (SI) HCT 116 (HCT 116),"effect on fibroblasts (healthy skin cell), in words (Fibroblasts)",Selectivity Index (SI) MDA MB231 (MDA MB231),Selectivity Index (SI) PANC1 (PANC1),selectivity ratio at 48 h [1],Selectivity Index (SI) PC3 (PC3)
11,11,11,17,10,11,1 to 25,"CN(C)c1ccc(/C=N/n2cnc3c(c2=N)Cc2ccccc2O3)cc1 [10d, (3E) 3-N-(4-Dimethylaminophenylmethylidene)amino-4-imino-3,5-dihydro-4H-chromeno[2,3-d]pyrimidine]",11,14,11,1.27,1.27,1.27,1.27,cytotoxic on fibroblasts,1.27,0.82,1.4,1.27
1.7,1.7,0.3,2.2,2,0.15,1 to 25,"N=c1c2c(ncn1/N=C/c1ccccc1O)Oc1ccccc1C2 [10e, (3E) 3-N-(2-Hydroxyphenylmethylidene)amino-4-imino-3,5-dihydro-4H-chromeno[2,3-d]pyrimidine]",2.5,1.6,1.5,0.64,0.94,0.94,5.33,cytotoxic on fibroblasts,1.07,0.73,0.8,10.67
